Measurements reported in paper PMC8893300, “A Dynamic Mass Redistribution Assay for the Human Sweet Taste Receptor Uncovers G-Protein Dependent Biased Ligands” (Frontiers in Pharmacology, 2022).
Like-named read-outs stand apart in the source and are kept apart here. Marks after values point to notes of the source that are not given here.

Target: T1, human sweet taste receptor (hT1R2/hT1R3) (Homo sapiens, UniProt Q7RTX0+Q8TE23)
T1 construct: expressed in transfected cells
T1 sequence (Q8TE23 20-839): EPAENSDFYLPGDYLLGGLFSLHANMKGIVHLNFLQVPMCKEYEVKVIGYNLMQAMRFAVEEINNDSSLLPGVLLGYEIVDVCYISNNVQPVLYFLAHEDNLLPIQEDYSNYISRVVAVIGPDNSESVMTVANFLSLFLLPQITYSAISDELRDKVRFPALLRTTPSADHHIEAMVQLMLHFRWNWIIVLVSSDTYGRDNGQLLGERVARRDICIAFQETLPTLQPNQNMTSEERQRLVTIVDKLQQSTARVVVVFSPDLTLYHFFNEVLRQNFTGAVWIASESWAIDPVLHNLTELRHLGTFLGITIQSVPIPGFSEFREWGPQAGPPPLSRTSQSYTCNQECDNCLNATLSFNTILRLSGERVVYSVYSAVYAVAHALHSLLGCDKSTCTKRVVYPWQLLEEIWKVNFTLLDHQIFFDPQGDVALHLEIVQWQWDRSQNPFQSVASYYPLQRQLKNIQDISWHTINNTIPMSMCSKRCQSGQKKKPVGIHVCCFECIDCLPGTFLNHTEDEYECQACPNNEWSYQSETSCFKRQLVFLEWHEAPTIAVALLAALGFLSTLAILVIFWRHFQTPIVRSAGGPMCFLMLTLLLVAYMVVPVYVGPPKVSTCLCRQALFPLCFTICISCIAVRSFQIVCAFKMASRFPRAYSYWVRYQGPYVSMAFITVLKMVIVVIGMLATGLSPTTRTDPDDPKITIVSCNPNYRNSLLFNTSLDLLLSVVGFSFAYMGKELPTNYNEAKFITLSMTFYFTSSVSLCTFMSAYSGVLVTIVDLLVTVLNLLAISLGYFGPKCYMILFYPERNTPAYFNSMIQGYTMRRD
T1 sequence (Q7RTX0 21-852): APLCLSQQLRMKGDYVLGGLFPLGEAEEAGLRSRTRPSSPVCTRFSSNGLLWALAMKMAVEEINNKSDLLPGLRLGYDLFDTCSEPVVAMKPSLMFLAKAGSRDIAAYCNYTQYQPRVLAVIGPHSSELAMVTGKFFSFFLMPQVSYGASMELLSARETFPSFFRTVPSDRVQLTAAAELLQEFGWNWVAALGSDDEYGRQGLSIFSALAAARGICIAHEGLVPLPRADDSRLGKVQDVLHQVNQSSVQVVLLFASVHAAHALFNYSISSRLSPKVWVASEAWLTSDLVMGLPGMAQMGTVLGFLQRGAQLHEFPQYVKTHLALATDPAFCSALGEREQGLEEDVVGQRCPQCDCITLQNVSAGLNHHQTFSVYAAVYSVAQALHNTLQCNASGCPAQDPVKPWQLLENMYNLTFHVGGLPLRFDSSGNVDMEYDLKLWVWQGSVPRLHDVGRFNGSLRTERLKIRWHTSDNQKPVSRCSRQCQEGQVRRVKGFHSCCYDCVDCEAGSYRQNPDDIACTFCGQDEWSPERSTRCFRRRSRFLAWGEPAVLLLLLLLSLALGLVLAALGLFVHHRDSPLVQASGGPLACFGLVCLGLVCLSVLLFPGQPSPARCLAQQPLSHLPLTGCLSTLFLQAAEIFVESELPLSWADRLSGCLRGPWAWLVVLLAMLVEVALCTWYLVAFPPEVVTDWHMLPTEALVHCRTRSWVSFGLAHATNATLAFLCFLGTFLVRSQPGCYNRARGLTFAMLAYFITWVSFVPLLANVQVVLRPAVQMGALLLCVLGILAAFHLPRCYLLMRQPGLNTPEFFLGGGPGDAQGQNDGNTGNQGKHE
Assay: DMR assay (Epic reader) on R2/R3 U2OS cells, endogenous G proteins
Format: cell-based
Conditions: for EC50: R2/R3 U2OS cells, peak DMR response; for ΔlogR DMR Mean: Table 2, operational model, logR minus sucralose logR; for Activity in DMR assay Emax: top asymptote of dose-response normalized to 1 mM sucralose
Description: The plates were incubated in the tissue culture hood for 20 min to allow cells to settle evenly at the bottom of the microplate and further cultured at 37°C in an atmosphere of 5% CO2 for 18–24 h. The next day, the cells were subjected to functional analysis using DMR. […] When indicated, data for agonist dose-responses were normalized to data obtained with a maximum concentration of sucralose (1 mM) and then fitted and plotted using GraphPad Prism (San Diego, CA) and non-linear regression analysis.
This value, that we termed pEC50Ratio (sucralose) or pEC50R (sucralose), was calculated with EC50 values obtained in the two assay systems. This transformation also allowed determination of an average and a standard error for the pEC50R (sucralose). The two sets of data (DMR and FLIPR data) were then analyzed with an un-paired t-test (α = 0.05). To calculate relative efficacy bias between the two assays, we captured the top asymptote value from each activity-normalized dose-response curve, as provided by the curve fit, calculated an average and a standard deviation (sd) for each agonist and then analyzed the data pairs with an un-paired t-test (α = 0.05). […] The following steps were followed: 1) Using the PRISM software, we re-analyzed each ligand’s dose-response data obtained in each assay with non-linear regression and the users-defined equation “New Operational Model with TauKa ratios” and retrieved logR values from the fits. 2) Subtracted each ligand’s logR value with that of our standard, the sucralose logR value, obtained from the same data set (each ligand dose-response assay data used in this analysis was accompanied with a sucralose dose-response ran on the same day), producing the ΔlogR value for leach ligand in each assay. 3) Calculated the mean and SEM from ΔlogR replicates (from three to nine independent dose-response analysis, in the two different assays). 4) Calculated ΔΔlogR values by subtracting the averaged ligands’ ΔlogR FLIPR values with the averaged ligands’ ΔlogR DMR values.

[1] = read-out: Activity in DMR assay EC50
[2] = read-out: Activity in DMR assay pEC50 (converted)

COC(=O)[C@H](Cc1ccccc1)NC(=O)[C@H](CC(=O)O)NCCC(C)(C)C [Neotame]
EC50 [1]: 7700 nM | EC50 [2]: 7290 nM | ΔlogR DMR Mean: 1.15 | Activity in DMR assay Emax: 99*

CC(C)Oc1ccc(NC(=S)NCc2ccc[nH]2)cc1 [S819]
EC50 [1]: 700 nM | EC50 [2]: 637 nM | ΔlogR DMR Mean: 2.52 | Activity in DMR assay Emax: 143*

CC(C)Oc1ccc(NC(=S)NCc2cccs2)cc1 [S5227]
EC50 [1]: 2200 nM | EC50 [2]: 2070 nM | ΔlogR DMR Mean: 1.84 | Activity in DMR assay Emax: 128
